Measurements published in ChEMBL document CHEMBL3758163, “Extended structure-activity study of thienopyrimidine-based EGFR inhibitors with evaluation of drug-like properties” (Eur J Med Chem, 2016).

What was measured:
[1] = molecular target: Epidermal growth factor receptor (Homo sapiens, UniProt P00533); test: Inhibition of EGFR (unknown origin) by Z -LYTE assay
[2] = molecular target: Tyrosine-protein kinase ABL1 (Homo sapiens) (UniProt P00519); test: Inhibition of ABL1 (unknown origin) at 500 nM
[3] = molecular target: Tyrosine-protein kinase Fgr (Homo sapiens) (UniProt P09769); test: Inhibition of FGR (unknown origin) at 500 nM
[4] = molecular target: Vascular endothelial growth factor receptor 3 (Homo sapiens) (UniProt P35916); test: Inhibition of FLT4 (unknown origin) at 500 nM
[5] = molecular target: Tyrosine-protein kinase Fyn (Homo sapiens) (UniProt P06241); test: Inhibition of FYN (unknown origin) at 500 nM
[6] = molecular target: Glycogen synthase kinase-3 beta (Homo sapiens) (UniProt P49841); test: Inhibition of GSK3B (unknown origin) at 500 nM
[7] = molecular target: Tyrosine-protein kinase HCK (Homo sapiens) (UniProt P08631); test: Inhibition of HCK (unknown origin) at 500 nM
[8] = molecular target: Insulin-like growth factor 1 receptor (Homo sapiens) (UniProt P08069); test: Inhibition of IGF1R (unknown origin) at 500 nM
[9] = molecular target: Vascular endothelial growth factor receptor 2 (Homo sapiens) (UniProt P35968); test: Inhibition of KDR (unknown origin) at 500 nM
[10] = molecular target: Tyrosine-protein kinase Lyn (Homo sapiens) (UniProt P07948); test: Inhibition of LYN A (unknown origin) at 500 nM
[11] = molecular target: T1, Serine/threonine-protein kinase Nek1 (Homo sapiens) (UniProt Q96PY6); test: Inhibition of NEK1 (unknown origin) at 500 nM
T1 sequence (whole entry): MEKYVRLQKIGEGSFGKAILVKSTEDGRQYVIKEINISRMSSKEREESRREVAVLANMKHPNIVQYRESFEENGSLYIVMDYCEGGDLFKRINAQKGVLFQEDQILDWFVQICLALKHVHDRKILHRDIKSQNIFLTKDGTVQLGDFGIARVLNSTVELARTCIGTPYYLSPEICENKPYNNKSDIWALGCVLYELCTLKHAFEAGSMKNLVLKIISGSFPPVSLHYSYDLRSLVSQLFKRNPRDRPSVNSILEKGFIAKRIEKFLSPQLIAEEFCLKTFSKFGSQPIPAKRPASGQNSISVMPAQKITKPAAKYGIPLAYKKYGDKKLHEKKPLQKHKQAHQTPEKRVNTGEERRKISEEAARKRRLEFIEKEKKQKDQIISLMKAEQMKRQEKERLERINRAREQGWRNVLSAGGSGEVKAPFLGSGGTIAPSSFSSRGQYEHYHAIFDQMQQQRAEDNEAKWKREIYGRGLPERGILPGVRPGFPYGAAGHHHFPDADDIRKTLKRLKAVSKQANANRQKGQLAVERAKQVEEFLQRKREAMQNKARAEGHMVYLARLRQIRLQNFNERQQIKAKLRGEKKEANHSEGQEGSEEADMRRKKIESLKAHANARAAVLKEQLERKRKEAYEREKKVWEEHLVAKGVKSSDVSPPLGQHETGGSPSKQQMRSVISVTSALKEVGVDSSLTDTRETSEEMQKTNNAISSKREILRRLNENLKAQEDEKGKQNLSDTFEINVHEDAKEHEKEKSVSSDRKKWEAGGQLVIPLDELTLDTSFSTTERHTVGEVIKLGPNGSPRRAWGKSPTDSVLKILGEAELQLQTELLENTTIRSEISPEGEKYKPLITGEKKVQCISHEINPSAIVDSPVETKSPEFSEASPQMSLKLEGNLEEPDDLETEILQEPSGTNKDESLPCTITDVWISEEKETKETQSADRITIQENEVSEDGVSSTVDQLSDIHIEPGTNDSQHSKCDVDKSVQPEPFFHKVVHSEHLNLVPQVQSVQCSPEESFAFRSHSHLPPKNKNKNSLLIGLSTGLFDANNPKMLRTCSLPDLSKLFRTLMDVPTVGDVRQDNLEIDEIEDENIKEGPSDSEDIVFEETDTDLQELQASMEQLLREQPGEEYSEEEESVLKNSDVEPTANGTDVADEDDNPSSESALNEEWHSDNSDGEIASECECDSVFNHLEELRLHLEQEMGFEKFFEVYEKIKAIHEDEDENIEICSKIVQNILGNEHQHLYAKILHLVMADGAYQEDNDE

[12] = molecular target: Platelet-derived growth factor receptor alpha (Homo sapiens) (UniProt P16234); test: Inhibition of PDGFRA (unknown origin) at 500 nM
[13] = molecular target: Serine/threonine-protein kinase pim-2 (Homo sapiens) (UniProt Q9P1W9); test: Inhibition of PIM2 (unknown origin) at 500 nM
[14] = molecular target: cAMP-dependent protein kinase catalytic subunit alpha (Homo sapiens) (UniProt P17612); test: Inhibition of PRKACA (unknown origin) at 500 nM
[15] = molecular target: Focal adhesion kinase 1 (Homo sapiens) (UniProt Q05397); test: Inhibition of PTK2 (unknown origin) at 500 nM
[16] = molecular target: Proto-oncogene tyrosine-protein kinase receptor Ret (Homo sapiens) (UniProt P07949); test: Inhibition of RET (unknown origin) at 500 nM
[17] = molecular target: Proto-oncogene tyrosine-protein kinase Src (Homo sapiens) (UniProt P12931); test: Inhibition of SRC (unknown origin) at 500 nM
[18] = molecular target: T2, Testis-specific serine/threonine-protein kinase 2 (Homo sapiens) (UniProt Q96PF2); test: Inhibition of STK22B (unknown origin) at 500 nM
T2 sequence (whole entry): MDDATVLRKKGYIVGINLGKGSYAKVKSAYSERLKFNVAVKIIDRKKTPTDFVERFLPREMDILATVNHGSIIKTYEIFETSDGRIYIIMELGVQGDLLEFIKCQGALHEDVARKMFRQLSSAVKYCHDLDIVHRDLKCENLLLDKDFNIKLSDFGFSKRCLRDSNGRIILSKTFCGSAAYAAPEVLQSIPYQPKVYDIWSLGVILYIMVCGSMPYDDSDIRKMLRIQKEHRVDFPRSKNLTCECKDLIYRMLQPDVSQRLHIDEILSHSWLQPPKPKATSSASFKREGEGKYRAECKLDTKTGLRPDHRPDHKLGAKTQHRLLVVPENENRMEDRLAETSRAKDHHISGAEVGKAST

[19] = molecular target: Tyrosine-protein kinase Yes (Homo sapiens) (UniProt P07947); test: Inhibition of YES1 (unknown origin) at 500 nM

Chain of Focal adhesion kinase 1 (Homo sapiens) (Q05397 2-1052 limits assumed): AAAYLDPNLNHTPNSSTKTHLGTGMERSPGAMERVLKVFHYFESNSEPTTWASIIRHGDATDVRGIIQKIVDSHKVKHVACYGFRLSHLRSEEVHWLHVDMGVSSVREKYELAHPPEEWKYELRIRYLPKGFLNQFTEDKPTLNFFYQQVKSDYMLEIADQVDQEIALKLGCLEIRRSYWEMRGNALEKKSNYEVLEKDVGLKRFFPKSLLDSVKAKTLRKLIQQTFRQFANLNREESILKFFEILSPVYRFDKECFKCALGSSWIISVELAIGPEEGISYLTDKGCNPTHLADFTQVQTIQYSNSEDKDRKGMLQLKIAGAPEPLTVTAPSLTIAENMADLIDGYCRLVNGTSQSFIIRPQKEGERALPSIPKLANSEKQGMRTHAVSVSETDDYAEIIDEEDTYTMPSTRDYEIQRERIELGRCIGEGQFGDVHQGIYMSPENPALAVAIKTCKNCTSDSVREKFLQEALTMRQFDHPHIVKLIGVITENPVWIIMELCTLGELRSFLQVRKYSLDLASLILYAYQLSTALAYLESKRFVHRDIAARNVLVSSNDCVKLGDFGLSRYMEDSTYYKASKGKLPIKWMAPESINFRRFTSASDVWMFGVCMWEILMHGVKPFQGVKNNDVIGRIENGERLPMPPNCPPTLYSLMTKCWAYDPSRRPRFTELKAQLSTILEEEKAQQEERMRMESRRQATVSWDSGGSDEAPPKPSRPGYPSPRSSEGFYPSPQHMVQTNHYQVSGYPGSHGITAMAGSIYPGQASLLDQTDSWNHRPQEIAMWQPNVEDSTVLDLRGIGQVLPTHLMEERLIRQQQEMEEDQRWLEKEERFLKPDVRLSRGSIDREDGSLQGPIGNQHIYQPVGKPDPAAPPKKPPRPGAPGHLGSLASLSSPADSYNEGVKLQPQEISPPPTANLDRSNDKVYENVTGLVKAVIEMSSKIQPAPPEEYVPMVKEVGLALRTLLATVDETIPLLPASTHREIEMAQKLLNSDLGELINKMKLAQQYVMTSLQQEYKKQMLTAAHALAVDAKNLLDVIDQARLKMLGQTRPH
Chain of Vascular endothelial growth factor receptor 3 (Homo sapiens) (P35916 whole entry): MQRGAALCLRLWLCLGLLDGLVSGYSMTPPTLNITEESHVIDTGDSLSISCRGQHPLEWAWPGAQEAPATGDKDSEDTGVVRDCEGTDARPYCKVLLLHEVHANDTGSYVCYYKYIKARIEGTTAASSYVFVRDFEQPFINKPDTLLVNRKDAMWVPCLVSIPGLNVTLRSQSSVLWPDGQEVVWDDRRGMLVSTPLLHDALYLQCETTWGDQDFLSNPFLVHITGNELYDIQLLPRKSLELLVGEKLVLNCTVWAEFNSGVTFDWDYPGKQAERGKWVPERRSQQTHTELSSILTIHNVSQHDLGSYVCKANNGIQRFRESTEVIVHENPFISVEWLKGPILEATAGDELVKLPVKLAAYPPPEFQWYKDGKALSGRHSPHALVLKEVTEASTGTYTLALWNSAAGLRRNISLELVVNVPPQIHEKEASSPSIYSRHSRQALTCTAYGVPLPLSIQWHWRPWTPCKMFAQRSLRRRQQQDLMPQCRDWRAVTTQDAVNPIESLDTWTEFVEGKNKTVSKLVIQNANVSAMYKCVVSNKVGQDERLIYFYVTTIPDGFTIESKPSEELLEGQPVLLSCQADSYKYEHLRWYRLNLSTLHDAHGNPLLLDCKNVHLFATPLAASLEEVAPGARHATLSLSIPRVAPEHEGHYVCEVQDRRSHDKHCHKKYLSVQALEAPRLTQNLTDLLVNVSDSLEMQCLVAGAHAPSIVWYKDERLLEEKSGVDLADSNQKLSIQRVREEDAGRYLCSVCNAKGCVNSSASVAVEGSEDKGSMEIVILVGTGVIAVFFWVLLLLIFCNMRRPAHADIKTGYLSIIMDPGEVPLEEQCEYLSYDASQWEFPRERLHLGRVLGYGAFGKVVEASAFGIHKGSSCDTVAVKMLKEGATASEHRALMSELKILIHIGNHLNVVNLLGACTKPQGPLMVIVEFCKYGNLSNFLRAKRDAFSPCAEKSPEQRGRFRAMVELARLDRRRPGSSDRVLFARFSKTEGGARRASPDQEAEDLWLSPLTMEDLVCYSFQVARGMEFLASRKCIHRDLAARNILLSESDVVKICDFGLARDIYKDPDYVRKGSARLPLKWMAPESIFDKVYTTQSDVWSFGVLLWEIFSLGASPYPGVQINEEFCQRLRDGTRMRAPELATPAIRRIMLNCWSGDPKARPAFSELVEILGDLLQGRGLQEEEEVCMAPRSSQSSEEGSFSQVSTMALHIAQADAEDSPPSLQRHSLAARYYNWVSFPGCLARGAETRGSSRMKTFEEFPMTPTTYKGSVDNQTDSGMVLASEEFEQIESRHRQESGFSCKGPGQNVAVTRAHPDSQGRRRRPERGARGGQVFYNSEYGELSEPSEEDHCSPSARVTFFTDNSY
Chain of Epidermal growth factor receptor (P00533 whole entry): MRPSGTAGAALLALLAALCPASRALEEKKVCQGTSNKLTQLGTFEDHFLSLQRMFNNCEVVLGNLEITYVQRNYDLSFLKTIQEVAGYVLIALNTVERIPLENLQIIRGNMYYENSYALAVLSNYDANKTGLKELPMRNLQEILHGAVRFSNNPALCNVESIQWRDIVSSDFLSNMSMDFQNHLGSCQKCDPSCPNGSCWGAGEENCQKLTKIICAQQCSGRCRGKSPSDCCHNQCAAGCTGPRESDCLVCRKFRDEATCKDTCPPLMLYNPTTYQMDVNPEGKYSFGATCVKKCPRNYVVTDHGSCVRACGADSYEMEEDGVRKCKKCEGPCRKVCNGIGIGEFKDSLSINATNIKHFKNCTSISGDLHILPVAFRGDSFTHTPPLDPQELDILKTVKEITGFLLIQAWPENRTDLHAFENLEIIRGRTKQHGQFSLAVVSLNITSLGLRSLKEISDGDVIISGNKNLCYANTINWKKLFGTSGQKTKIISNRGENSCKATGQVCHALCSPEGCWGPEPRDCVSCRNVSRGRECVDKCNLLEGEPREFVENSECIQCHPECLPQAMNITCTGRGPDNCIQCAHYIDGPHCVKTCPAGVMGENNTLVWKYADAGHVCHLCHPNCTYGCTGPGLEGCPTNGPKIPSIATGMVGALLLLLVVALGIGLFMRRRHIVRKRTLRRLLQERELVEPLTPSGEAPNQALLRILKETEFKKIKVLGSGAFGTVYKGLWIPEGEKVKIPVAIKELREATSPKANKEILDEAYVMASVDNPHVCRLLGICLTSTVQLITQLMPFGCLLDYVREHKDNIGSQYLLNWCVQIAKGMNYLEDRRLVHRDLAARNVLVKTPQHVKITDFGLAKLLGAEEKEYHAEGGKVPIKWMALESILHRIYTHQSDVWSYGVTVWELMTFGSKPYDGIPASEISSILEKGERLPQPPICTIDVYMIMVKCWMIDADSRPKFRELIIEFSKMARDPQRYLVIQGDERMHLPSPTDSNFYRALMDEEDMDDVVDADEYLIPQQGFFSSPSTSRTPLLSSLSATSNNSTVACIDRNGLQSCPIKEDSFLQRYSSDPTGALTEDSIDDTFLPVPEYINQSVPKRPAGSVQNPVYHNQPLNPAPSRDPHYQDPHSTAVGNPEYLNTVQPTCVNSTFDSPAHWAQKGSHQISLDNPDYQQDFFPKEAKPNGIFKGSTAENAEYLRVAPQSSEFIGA
Chain of Proto-oncogene tyrosine-protein kinase receptor Ret (Homo sapiens) (P07949 whole entry): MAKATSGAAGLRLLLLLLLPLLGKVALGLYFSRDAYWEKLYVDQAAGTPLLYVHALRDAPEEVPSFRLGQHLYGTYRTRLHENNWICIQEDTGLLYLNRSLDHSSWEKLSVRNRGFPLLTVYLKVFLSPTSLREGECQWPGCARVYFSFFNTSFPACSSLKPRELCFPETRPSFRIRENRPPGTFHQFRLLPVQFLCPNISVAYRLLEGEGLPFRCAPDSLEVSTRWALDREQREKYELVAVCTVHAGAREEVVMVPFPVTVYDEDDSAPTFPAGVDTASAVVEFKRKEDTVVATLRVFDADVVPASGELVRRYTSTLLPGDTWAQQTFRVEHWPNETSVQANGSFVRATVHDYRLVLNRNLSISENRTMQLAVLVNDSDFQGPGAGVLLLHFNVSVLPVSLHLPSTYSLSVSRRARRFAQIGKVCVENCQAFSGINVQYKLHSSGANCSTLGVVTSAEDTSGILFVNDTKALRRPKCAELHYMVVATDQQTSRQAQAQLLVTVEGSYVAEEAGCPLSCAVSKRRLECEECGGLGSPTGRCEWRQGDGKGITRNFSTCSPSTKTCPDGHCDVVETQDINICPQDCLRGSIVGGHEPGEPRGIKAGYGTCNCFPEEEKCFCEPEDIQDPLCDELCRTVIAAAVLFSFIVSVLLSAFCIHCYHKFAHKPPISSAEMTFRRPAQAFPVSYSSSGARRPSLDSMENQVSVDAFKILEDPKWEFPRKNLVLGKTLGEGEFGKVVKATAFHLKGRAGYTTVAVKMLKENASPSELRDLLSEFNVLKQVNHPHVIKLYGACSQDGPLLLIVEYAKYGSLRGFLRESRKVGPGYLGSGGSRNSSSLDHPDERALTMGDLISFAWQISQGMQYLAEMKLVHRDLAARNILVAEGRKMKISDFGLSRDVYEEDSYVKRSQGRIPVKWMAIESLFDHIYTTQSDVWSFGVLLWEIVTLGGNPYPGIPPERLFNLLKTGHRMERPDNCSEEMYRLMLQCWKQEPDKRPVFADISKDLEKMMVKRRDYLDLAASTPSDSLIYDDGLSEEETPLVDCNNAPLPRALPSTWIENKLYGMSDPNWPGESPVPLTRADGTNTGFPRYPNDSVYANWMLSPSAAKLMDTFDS
Chain of Serine/threonine-protein kinase pim-2 (Homo sapiens) (Q9P1W9 whole entry, looked up): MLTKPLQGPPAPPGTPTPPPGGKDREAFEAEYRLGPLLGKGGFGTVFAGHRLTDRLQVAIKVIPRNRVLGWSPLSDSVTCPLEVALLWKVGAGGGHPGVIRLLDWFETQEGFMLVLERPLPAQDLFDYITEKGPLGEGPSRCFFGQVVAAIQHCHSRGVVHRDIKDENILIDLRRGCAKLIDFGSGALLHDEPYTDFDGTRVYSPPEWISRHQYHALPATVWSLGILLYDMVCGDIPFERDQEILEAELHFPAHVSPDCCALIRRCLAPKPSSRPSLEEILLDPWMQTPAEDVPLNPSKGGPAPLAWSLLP

IC50 [1] [nM]	inhibition [2] [%]	inhibition [3] [%]	inhibition [4] [%]	inhibition [5] [%]	inhibition [6] [%]	inhibition [7] [%]	inhibition [8] [%]	inhibition [9] [%]	inhibition [10] [%]	inhibition [11] [%]	inhibition [12] [%]	inhibition [13] [%]	inhibition [14] [%]	inhibition [15] [%]	inhibition [16] [%]	inhibition [17] [%]	inhibition [18] [%]	inhibition [19] [%]	SMILES
14	20	25	9	6	5	28	-3	10	24	-5	7	5	2	15	26	17	9	20	COc1cc(CO)ccc1-c1cc2c(Nc3ccccc3)ncnc2s1
2	27	33	4	23	3	15	0	10	31		10	1	-5	7	20	17	1	21	CN(C)CCNC(=O)c1ccc(-c2cc3c(N[C@H](CO)c4ccccc4)ncnc3s2)cc1
	75	42			-8				68	-8			-10	-3	64	42			C#Cc1cccc(Nc2ncnc3cc(OCCOC)c(OCCOC)cc23)c1 [ERLOTINIB]
2	1	18	13	19	5	3	-6	6	38	4	15	3	-6	7	-2	18	11	23	C[C@@H](Nc1ncnc2sc(-c3ccc(C(=O)NCCN(C)C)cc3)cc12)c1ccccc1
276	-5	2	2	7	6	2	-6	-4	16	3	-7	0	-8	5	-5	12	5	10	C[C@@H](Nc1ncnc2sc(-c3ccccc3C(N)=O)cc12)c1ccccc1
0.5	6	71	3	8	13	15	-2	10	57	-4	-3	-4	9	3	7	9	0	43	COc1ccc(C(=O)NCCN(C)C)cc1-c1cc2c(N[C@H](C)c3ccccc3)ncnc2s1
5	-3	11	7	0	8	-4	-8	8	13	-6	-9	11	-1	0	0	15	2	8	C#Cc1cccc(Nc2ncnc3sc(-c4ccc(CO)cc4OC)cc23)c1
	7	40	3	1	7	7		12	61	1	1	1	2	6	5	10	8	12	COc1cc(CO)ccc1-c1cc2c(N[C@H](C)c3ccccc3)ncnc2s1
2	19	11	8	5	4	15	-3	3	13		5	6	8	16	16	14	1	14	COc1cc(CO)ccc1-c1cc2c(Nc3ccc(F)c(Cl)c3)ncnc2s1

SMILES	IC50 [1] [nM]	inhibition [2] [%]	inhibition [3] [%]	inhibition [4] [%]	inhibition [5] [%]	inhibition [6] [%]	inhibition [7] [%]	inhibition [8] [%]	inhibition [9] [%]	inhibition [10] [%]	inhibition [11] [%]	inhibition [12] [%]	inhibition [13] [%]	inhibition [14] [%]	inhibition [15] [%]	inhibition [16] [%]	inhibition [17] [%]	inhibition [18] [%]	inhibition [19] [%]
COc1cc(C(N)=O)ccc1-c1cc2c(N[C@H](CO)c3ccccc3)ncnc2s1	1.5	4	40	13	16	17	13	-9	7	47	3	0	11	-5	3	5	20	11	40
COc1cc(CO)ccc1-c1cc2c(N[C@H](CO)c3ccccc3)ncnc2s1		22	58	1	12	8	20		12	40	13	1	1	1	1	9	9	8	37
